Reference: patent US5053070A, “Pyrimidine derivatives, preparation processes thereof, herbicide containing the same, and herbicidal compositions containing the same along with other active ingredient” (Mitsui Toatsu Chemicals, Incorporated, priority 1988, dated 1991)

Columns and labels:
Assay type in all cases: in vivo
johnsongrass [1] = test: Upland foliar application test by mixed formulations, concentration gradient (Test 8); details: Sorghum halepense, 960 h, applied alone, 40th day, read-out: Herbicidal effects Johnsongrass Ea; for pest or weed control at 100 g/ha: 1 g/a; for pest or weed control at 200 g/ha: 2 g/a
Protocol: (§1) Resin-made 1/10,000-are pots were filled with the soil of an upland field. Redroot pigweed and johnsongrass were separately seeded and were allowed to germinate in a green house. When each plant grew to the stage of 2-3 leaves, emulsions formulated with concentration gradient from predetermined amounts of two test compounds of different kinds in a similar manner to the method described in Formulation Example 16 was diluted with water to a predetermined dilution rate and then sprayed at an application rate equal to 5 l per are onto the foliage of each plant by means of a pressure-operated ULV (ultra low volume) sprayer. Influence to the weeds were observed on the 40th day after the spray of the herbicides. The results are shown in Table 9, In the table, Ea have the same meanings as in Test 7, and Ea>Ec indicates the existence of synergistic action while Ea<Ec indicates the existence of antagonistic action.

redroot pigweed [2] = test: as above; details: Amaranthus retroflexus, 960 h, applied alone, 40th day, read-out: Herbicidal effects Redrood pigweed Ea; for pest or weed control at 100 g/ha: 1 g/a; for pest or weed control at 200 g/ha: 2 g/a
Protocol: as §1

green foxtail = test: Upland foliar application test by mixed formulations (Test 7); details: applied alone, 30th day; for pest or weed control at 300 g/ha / pest or weed control at 1000 g/ha: Setaria viridis, 720 h, read-out: Herbicidal effects (%) Green foxtail Ea; for pest or weed control at 300 g/ha / Herbicidal effects (%) Green foxtail Ea: 0.3 kg/ha; for pest or weed control at 1000 g/ha: 1 kg/ha
Protocol: (§2) Resin-made 1/10,000-are pots were filled with the soil of an upland field. Redroot pigweed, morningglories, johnsongrass, barnyardgrass and green foxtail were separately seeded and were allowed to germinate in a green house. When each plant grew to the stage of 2-3 leaves, an emulsion formulated from predetermined amounts of two test compounds of different kinds in a similar manner to the method described in Formulation Example 16 was diluted with water to a predetermined dilution rate and then sprayed at an application rate equal to 5 l per are onto the foliage of each plant by means of a pressure-operated ULV (ultra low volume) sprayer. Influence to the weeds were observed on the 30th day after the spray of the herbicides. In the table, each Ea means an acutally measured value of herbicidal activities when two kinds of herbicides were mixed. Each Ec is an expected value for herbicidal activities, calculated in accordance with the below-described calculation formula proposed by Colby et al. [Colby, S. R., Weed 15, 20-22 (1967)]. Ea>Ec indicates the existence of synergistic action while […] action. [formula] Ec: Growth inhibition rate (%) expected when Ingredient I and Ingredient II are mixed.
(§3) Ex: Growth inhibition rate (%) when treated with Ingredient I alone.
(§4) Ey: Growth inhibition rate (%) when treated with Ingredient II alone.

redroot pigweed [3] = test: as above; details: Amaranthus retroflexus, 720 h, applied alone, 30th day, read-out: Herbicidal effects (%) Redrood pigweed Ea; for pest or weed control at 300 g/ha: 0.3 kg/ha; for pest or weed control at 1000 g/ha: 1 kg/ha
Protocol: as §2, §3, §4

barnyardgrass = test: as above; details: Echinochloa crus-galli, 720 h, applied alone, 30th day, read-out: Herbicidal effects (%) Barnyardgrass Ea; for pest or weed control at 300 g/ha: 0.3 kg/ha; for pest or weed control at 1000 g/ha: 1 kg/ha
Protocol: as §2, §3, §4

morningglories = test: as above; details: Ipomoea, 720 h, applied alone, 30th day, read-out: Herbicidal effects (%) Morningglory Ea; for pest or weed control at 300 g/ha: 0.3 kg/ha; for pest or weed control at 1000 g/ha: 1 kg/ha
Protocol: as §2, §3, §4

johnsongrass [4] = test: as above; details: Sorghum halepense, 720 h, applied alone, 30th day, read-out: Herbicidal effects (%) Johnsongrass Ea; for pest or weed control at 300 g/ha: 0.3 kg/ha; for pest or weed control at 1000 g/ha: 1 kg/ha
Protocol: as §2, §3, §4

| Compound | pest or weed control at 100 g/ha (johnsongrass [1]) | pest or weed control at 200 g/ha (johnsongrass [1]) | pest or weed control at 100 g/ha (redroot pigweed [2]) | pest or weed control at 200 g/ha (redroot pigweed [2]) | pest or weed control at 300 g/ha (green foxtail) | Herbicidal effects (%) Green foxtail Ea (green foxtail) | pest or weed control at 300 g/ha (redroot pigweed [3]) | pest or weed control at 300 g/ha (barnyardgrass) | pest or weed control at 300 g/ha (morningglories) | pest or weed control at 300 g/ha (johnsongrass [4]) | pest or weed control at 1000 g/ha (green foxtail) | pest or weed control at 1000 g/ha (redroot pigweed [3]) | pest or weed control at 1000 g/ha (barnyardgrass) | pest or weed control at 1000 g/ha (morningglories) | pest or weed control at 1000 g/ha (johnsongrass [4]) |
| --- | --- | --- | --- | --- | --- | --- | --- | --- | --- | --- | --- | --- | --- | --- | --- |
| COc1cc(OC)nc(Oc2ccccc2C=NOCC=Cc2ccccc2)n1 [Compound No. 9] | 10% | 20% | 10% | 30% | 70% | 70% | 50% | 50% | 0% |  |  |  |  |  |  |
| COc1cc(OC)nc(Oc2ccccc2C=NOCC=Cc2ccc(Cl)cc2Cl)n1 [compound 30] |  |  |  |  | 20% | 20% | 40% | 40% | 0% | 10% |  |  |  |  |  |
| COc1cc(OC)nc(Oc2ccccc2C=NOCc2cccc(C)c2)n1 [compound 20] |  |  |  |  | 10% |  | 30% | 30% | 10% |  |  |  |  |  |  |
| COc1cc(OC)nc(Oc2ccccc2C=NOCC=CCl)n1 [compound 11] |  |  |  |  |  |  |  |  |  |  | 10% | 30% | 30% | 0% |  |
| COc1cc(OC)nc(Oc2ccccc2C=NO)n1 [Compound No. 24, 2-(4,6-dimethoxy-2-pyrimidinyloxy)-benzaloxime] |  |  |  |  | 20% |  | 50% | 50% | 0% | 20% |  |  |  |  |  |
| COc1cc(OC)nc(Oc2ccccc2C=NOC(C)C)n1 [compound 6] |  |  |  |  |  |  |  |  |  |  | 30% | 50% | 50% | 0% | 30% |
| COc1cc(OC)nc(Oc2ccccc2C=NOCC=Cc2ccccc2Cl)n1 [Compound No. 27] |  |  |  |  | 30% |  | 50% | 50% | 10% | 30% |  |  |  |  |  |
| COc1cc(OC)nc(Oc2ccccc2C=NOCC=Cc2ccc(Cl)cc2)n1 [Compound No. 28] |  |  |  |  | 30% |  | 50% | 50% | 0% | 30% |  |  |  |  |  |
| COc1cccc(C=CCON=Cc2ccccc2Oc2nc(OC)cc(OC)n2)c1 [compound 38] |  |  |  |  | 40% |  | 50% | 50% | 10% | 40% |  |  |  |  |  |
| COc1cc(OC)nc(Oc2ccccc2C=NOCC=Cc2ccccc2Br)n1 [compound 40] |  |  |  |  | 10% |  | 20% | 20% | 0% |  |  |  |  |  |  |
| COc1cc(OC)nc(Oc2ccccc2C=NOCc2ccccc2)n1 [Compound No. 15] |  |  |  |  |  |  |  |  |  |  | 20% | 50% | 50% | 0% |  |
| COc1cc(OC)nc(Oc2ccccc2C=NOCC=Cc2ccccc2C(F)(F)F)n1 [compound 32] |  |  |  |  |  |  |  |  |  |  | 30% | 50% | 50% | 0% | 30% |
| COc1cc(OC)nc(Oc2ccccc2C=NOCC=C(C)C)n1 [Compound No. 7] | 10% | 20% | 10% | 50% | 50% |  | 30% | 30% | 10% | 40% |  |  |  |  |  |
| CC#CCON=Cc1ccccc1Oc1nc(OC)cc(OC)n1 [compound 10] |  |  |  |  |  |  |  |  |  |  | 20% | 10% | 10% | 0% | 20% |
| COc1cc(OC)nc(Oc2ccccc2C=NOCC#Cc2ccccc2)n1 [compound 42] |  |  |  |  | 50% |  | 50% | 50% | 10% | 50% |  |  |  |  |  |
| C#CCON=Cc1ccccc1Oc1nc(OC)cc(OC)n1 [Compound No. 13, 0-(2-propynyl)-2-(4,6-dimethoxy-2-pyrimidinyloxy)benzaldoxime] | 30% | 50% | 20% | 40% |  |  |  |  |  |  | 40% | 70% | 70% | 10% |  |
| COc1cc(OC)nc(Oc2ccccc2C=NOC2CCCCC2)n1 [Compound No. 3] |  |  |  |  |  |  |  |  |  |  | 20% |  | 40% | 0% | 40% |
| COc1cc(OC)nc(Oc2ccccc2C=NOCC=Cc2cccc(C)c2)n1 [Compound No. 34, 0-(3-methylcinnamyl)-2-(4,6-dimethoxy-2-pyrimidinyloxy)benzaldoxime] |  |  |  |  | 30% |  | 30% | 30% | 0% | 30% |  |  |  |  |  |
| COc1cc(OC)nc(Oc2ccccc2C=NOCC=Cc2ccccc2C)n1 [Compound No. 39] | 10% | 20% | 10% | 30% | 50% |  | 50% | 50% | 10% | 50% |  |  |  |  |  |
| C=C(Cl)CON=Cc1ccccc1Oc1nc(OC)cc(OC)n1 [Compound No. 14] |  |  |  |  | 30% |  | 85% | 85% | 0% | 30% |  |  |  |  |  |
